Measurements from paper PMC4086246 (Journal of cellular biochemistry, 2014).
Residue numbers refer to the chain shown, from its start.

How the values were obtained:
ABCG2 [1] = target: T1, ABCG2 (Homo sapiens, UniProt Q9UNQ0, R482T); experiment: [3H]-mitoxantrone accumulation in transfected cells; assay type: cell-based
T1 sequence (Q9UNQ0 1-655 R482T): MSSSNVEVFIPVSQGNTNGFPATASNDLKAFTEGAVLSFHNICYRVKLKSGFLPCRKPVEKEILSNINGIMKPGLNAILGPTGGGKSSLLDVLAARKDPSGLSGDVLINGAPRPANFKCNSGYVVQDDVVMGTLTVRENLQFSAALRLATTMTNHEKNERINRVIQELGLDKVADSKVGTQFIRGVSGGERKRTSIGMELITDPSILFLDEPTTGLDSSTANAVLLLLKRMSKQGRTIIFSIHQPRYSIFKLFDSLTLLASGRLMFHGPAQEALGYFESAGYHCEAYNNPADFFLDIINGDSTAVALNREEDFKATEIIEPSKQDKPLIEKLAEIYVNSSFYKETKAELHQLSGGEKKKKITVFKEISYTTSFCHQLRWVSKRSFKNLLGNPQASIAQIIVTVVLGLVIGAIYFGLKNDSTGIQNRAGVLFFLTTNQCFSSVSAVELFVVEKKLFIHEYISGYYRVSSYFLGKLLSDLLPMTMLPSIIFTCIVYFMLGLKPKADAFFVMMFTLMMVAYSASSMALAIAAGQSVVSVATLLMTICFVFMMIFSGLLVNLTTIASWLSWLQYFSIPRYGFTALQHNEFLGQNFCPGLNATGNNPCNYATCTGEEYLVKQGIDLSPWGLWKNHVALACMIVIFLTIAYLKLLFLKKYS

ABCG2 [2] = target: T2, ABCG2 (Homo sapiens, UniProt Q9UNQ0, R482G); experiment: as above; assay type: cell-based
T2 sequence (Q9UNQ0 1-655 R482G): T1 sequence (Q9UNQ0 1-655 R482T) with T482G

ABCG2 [3] = target: T3, ABCG2 (Homo sapiens, UniProt Q9UNQ0); experiment: inhibition of […]-IAAP photoaffinity labeling in membranes; assay type: binding
T3 sequence (Q9UNQ0 1-655): T1 sequence (Q9UNQ0 1-655 R482T) with T482R

SMILES: C[C@@H]1COC(Nc2ccc3ncnc(Nc4ccc(OCc5nccs5)c(Cl)c4)c3c2)=N1 [ARRY-334543]
- [3H]-mitoxantrone accumulation in transfected cells (0.25 and 1.0 μM) (ABCG2 [1]): significantly increased intracellular levels of [^3H]-MX in the NCI-H460, NCI-H460/MX20, ABCG2-482-R2, ABCG2-482-G2, and ABCG2-482-T7 cells
- [3H]-mitoxantrone accumulation in transfected cells (0.25 and 1.0 μM) (ABCG2 [2]): significantly increased intracellular levels of [^3H]-MX in the NCI-H460, NCI-H460/MX20, ABCG2-482-R2, ABCG2-482-G2, and ABCG2-482-T7 cells
- IC50 (ABCG2 [3]): 3.7 µM
